Data published in patent US20090018194A1, “Use of antimicrobial agents derived from alliaceous plants for the prevention and control of crop diseases, post-harvest rot and as environmental disinifectant products” (DMC Research Center, S.L., priority 2007, published 2009).

How the values were obtained:
[1] = system: Trichoderma aureoviride CECT 20102; test: agar diffusion test, commercial phytosanitaries; format: cell-based; settings: incl. 6 mm disc
[2] = system: Geotrichum candidum CECT 1902; test: agar diffusion test, commercial phytosanitaries; format: cell-based; settings: incl. 6 mm disc
[3] = system: Penicillium italicum CECT 2294; test: agar diffusion test with impregnated cellulose discs; format: cell-based; settings: incl. 6 mm disc
[4] = system: Rhizopus stolonifer ATCC 24862; test: agar diffusion test, commercial phytosanitaries; format: cell-based; settings: incl. 6 mm disc
[5] = system: pears (Decana and Flor de Invierno varieties); test: phytotoxicity on treated pears; settings: 450 ppm
[6] = system: Penicillium expansum; test: post-harvest rotting of inoculated apples, drencher treatment; format: in vivo; settings: 450 ppm, 15 days of refrigeration at 5-6° C.
Protocol: (§1) The effectiveness of the active principle PTS (in various individual doses) was studied in the control of post-harvest rotting of pears and apples caused by the fungi Botrytis cinerea and Penicillium expansum, the principal agents of diseases in these fruits. These phytopathogens can appear in fruit being stored in a cold room and, once in the processing plant and in a later phase, form colonies and are transferred from one fruit to another by contact. The study was performed by means of a controlled inoculation test to ensure a high percentage of affected fruits, and to guarantee that this level of infection is with certainty caused by these pathogens, thereby making it possible to detect and evaluate significant differences between the different treatments. […] To perform the controlled inoculation, wild strains of Botrytris cinerea and Penicillium expansum were used which were isolated in fruit and vegetable processing plants. […] After the time indicated above had passed, the various post-harvest treatments were carried out by means of […] 25° C. for 60 seconds.

[7] = system: Botrytis cinerea; test: as above; format: in vivo; settings: 450 ppm, 15 days of refrigeration at 5-6° C.
Protocol: as §1

[8] = system: apples (Golden Delicious and Red Chief varieties); test: phytotoxicity on treated apples; settings: 450 ppm
[9] = system: Penicillium expansum; test: post-harvest rotting of inoculated pears, drencher treatment; format: in vivo; settings: 450 ppm, 15 days of refrigeration at 5-6° C.
Protocol: as §1

[10] = system: Botrytis cinerea; test: as above; format: in vivo; settings: 450 ppm, 15 days of refrigeration at 5-6° C.
Protocol: as §1

Compound | diameter of the microbial inhibition halo ([1]; 4000 ppm active principle) [mm] | diameter of the microbial inhibition halo ([1]; 6000 ppm active principle) [mm] | diameter of the microbial inhibition halo ([2]; 4000 ppm active principle) [mm] | diameter of the microbial inhibition halo ([2]; 6000 ppm active principle) [mm] | diameter of the microbial inhibition halo ([3]; 4000 ppm active principle) [mm] | diameter of the microbial inhibition halo ([3]; 6000 ppm active principle) [mm] | diameter of the microbial inhibition halo ([4]; 4000 ppm active principle) [mm] | diameter of the microbial inhibition halo ([4]; 6000 ppm active principle) [mm] | also measured
Oc1ccccc1-c1ccccc1 [o-pheynl phenol] | 40 | 42 | 45 | 47 | 45 | 45 | 14 | 15 | –
c1ccc(-c2ccccc2)cc1 [Biphenyl] | 0 | 0 | 0 | 0 | 7 | 8 | 0 | 0 | –
imazalil sulfate [reference compound] | – | – | – | – | – | – | – | – | Phytotoxicity (number of damaged fruits) ([5]; Decana, fruit inoculated with Botrytis cinerea): 0; Phytotoxicity (number of damaged fruits) ([5]; Decana, fruit inoculated with Penicillium expansum): 0; Phytotoxicity (number of damaged fruits) ([5]; Flor de invierno, fruit inoculated with Botrytis cinerea): 0; Phytotoxicity (number of damaged fruits) ([5]; Flor de invierno, fruit inoculated with Penicillium expansum): 0; % of fruit affected ([6]; Golden Delicious): 4.3%; % of fruit affected ([6]; Red Chief): 6.2%; % of fruit affected ([7]; Golden Delicious): 10%; % of fruit affected ([7]; Red Chief): 12%; Phytotoxicity (number of damaged fruits) ([8]; Golden Delicious, fruit inoculated with Botrytis cinerea): 0; Phytotoxicity (number of damaged fruits) ([8]; Golden Delicious, fruit inoculated with Penicillium expansum): 0; Phytotoxicity (number of damaged fruits) ([8]; Red Chief, fruit inoculated with Botrytis cinerea): 0; Phytotoxicity (number of damaged fruits) ([8]; Red Chief, fruit inoculated with Penicillium expansum): 0; % of fruit affected ([9]; Decana): 4.5%; % of fruit affected ([9]; Flor de invierno): 6.7%; % of fruit affected ([10]; Decana): 19%; % of fruit affected ([10]; Flor de invierno): 24%
